For orientation: EC50 means the concentration needed to bring the measured effect to its halfway point. What is called AC50 is the midpoint of the concentration-response curve, whichever way the signal moves.

Structures are written as SMILES. The source made the active and inactive calls. Where only a bound is given, the exact number is not on record here.

For ten compounds, EC50, IC50 and AC50 results are on record in ChEMBL document CHEMBL1201862, “PubChem BioAssay data set” (2004).

For assay [1], the target named is Nucleotide-binding oligomerization domain-containing protein 2 (Homo sapiens, UniProt Q9HC29). The assay is described as follows: NOD2 signaling inhibitors, cell-based, luminescence, uHTS, HEK293 (AID 1566). It counts as functional.
Nucleotide-binding oligomerization domain-containing protein 2, sequence (Q9HC29 whole entry, the tested form may be a part): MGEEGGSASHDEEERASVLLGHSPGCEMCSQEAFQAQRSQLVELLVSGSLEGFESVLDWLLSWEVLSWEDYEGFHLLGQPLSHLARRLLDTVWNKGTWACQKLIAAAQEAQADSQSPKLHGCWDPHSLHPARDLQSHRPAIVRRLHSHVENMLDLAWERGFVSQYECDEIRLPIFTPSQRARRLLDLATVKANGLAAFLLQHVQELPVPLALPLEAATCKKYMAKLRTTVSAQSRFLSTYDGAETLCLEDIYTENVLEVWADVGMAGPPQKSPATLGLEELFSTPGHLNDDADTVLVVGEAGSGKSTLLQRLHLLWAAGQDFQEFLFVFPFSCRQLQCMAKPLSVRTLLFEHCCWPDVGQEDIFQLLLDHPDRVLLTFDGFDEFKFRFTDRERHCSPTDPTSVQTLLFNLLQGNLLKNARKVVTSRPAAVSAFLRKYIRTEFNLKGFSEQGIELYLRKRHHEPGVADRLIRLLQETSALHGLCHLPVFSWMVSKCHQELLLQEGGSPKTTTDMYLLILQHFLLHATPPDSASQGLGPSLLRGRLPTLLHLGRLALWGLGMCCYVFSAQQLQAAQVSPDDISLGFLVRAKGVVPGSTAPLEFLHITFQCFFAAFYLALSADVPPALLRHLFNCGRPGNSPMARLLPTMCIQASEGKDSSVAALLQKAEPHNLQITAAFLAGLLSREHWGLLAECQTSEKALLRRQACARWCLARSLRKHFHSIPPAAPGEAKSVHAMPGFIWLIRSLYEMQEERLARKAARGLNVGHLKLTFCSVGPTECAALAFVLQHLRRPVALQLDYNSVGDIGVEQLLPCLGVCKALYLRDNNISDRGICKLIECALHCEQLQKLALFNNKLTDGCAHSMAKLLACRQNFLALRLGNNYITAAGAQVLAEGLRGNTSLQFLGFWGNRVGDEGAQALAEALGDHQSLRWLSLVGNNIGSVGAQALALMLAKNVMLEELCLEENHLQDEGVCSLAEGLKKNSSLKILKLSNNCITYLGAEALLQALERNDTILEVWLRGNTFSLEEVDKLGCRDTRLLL
Assay [2] addresses Photoreceptor-specific nuclear receptor (Homo sapiens, UniProt Q9Y5X4). It counts as functional, cell-based.
Assay [3] deals with HEK293. The assay is described as follows: cells. It counts as functional, cell-based. To be noted: Homo sapiens.
For assay [4], the system named is HEK293. The assay is described as follows: NOD2 signaling inhibitors in MDP-stimulated cells, cell-based, uHTS, luminescence (AID 2001). It counts as functional. The following applies: Homo sapiens.
Assay [5] concerns HEK293. The assay is described as follows: cells. It counts as functional, cell-based. The following applies: Homo sapiens. The source holds these as a separate data set.
The test system of assay [6] is HEK293. As to the kind of experiment: cells. It counts as functional, cell-based. To be noted: Homo sapiens. This is another data set of the same source.
Assay [7] concerns HEK293. The assay is described as follows: NOD1 signaling inhibitors, primary screen, cell-based, luminescence, uHTS (AID 1578). It counts as functional. The following applies: Homo sapiens.
Assay [8] addresses T1, Sentrin-specific protease 1 (Homo sapiens, UniProt Q9P0U3).
T1 sequence (Q9P0U3 whole entry): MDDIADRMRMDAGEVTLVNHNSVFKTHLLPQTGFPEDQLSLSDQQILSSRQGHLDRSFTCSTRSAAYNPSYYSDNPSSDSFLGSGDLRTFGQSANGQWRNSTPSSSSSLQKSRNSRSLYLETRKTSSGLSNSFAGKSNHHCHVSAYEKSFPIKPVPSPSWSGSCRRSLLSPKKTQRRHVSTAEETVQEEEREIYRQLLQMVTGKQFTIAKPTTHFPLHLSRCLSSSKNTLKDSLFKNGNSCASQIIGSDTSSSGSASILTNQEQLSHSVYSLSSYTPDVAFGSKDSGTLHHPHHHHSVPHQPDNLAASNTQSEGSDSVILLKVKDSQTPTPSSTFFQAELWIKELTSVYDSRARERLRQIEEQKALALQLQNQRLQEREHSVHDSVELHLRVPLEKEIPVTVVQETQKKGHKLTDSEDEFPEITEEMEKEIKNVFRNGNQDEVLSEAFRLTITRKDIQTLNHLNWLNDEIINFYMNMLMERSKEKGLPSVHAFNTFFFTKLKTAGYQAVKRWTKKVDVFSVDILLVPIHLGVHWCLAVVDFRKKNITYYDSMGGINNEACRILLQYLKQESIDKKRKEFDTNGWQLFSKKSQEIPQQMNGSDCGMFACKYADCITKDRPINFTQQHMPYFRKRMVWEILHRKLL
As to the kind of experiment: Dose response confirmation of small molecule inhibitors of the catalytic domain of the SUMO protease, SENP1 in a FRET assay. The following applies: read-out: IC50_Mean. It counts as functional.

In assay [9] the target is T1, Sentrin-specific protease 1. As to the kind of experiment: potency of human SENP1 inhibitors, dose response, biochemical, kinetic FRET (AID 651697). The following applies: read-out: IC50_Mean. It counts as functional.
Assay [10] can be described thus: cytotoxicity toward NIH3T3 fibroblasts, dose response, counter-screen, cell-based, ATP luminescence, mouse fibroblasts (AID 2010).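 Also: cells exposed to compound for about 90 hours before reading.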 It counts as functional. In general terms: The purpose of a counterscreen is to sort out artefacts and off-target activity.
Another assay concerns the target T2, Estrogen receptor (Homo sapiens, UniProt P03372).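 Also: potency for inhibiting coactivator peptide recruitment to the receptor.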
T2 sequence (P03372 whole entry): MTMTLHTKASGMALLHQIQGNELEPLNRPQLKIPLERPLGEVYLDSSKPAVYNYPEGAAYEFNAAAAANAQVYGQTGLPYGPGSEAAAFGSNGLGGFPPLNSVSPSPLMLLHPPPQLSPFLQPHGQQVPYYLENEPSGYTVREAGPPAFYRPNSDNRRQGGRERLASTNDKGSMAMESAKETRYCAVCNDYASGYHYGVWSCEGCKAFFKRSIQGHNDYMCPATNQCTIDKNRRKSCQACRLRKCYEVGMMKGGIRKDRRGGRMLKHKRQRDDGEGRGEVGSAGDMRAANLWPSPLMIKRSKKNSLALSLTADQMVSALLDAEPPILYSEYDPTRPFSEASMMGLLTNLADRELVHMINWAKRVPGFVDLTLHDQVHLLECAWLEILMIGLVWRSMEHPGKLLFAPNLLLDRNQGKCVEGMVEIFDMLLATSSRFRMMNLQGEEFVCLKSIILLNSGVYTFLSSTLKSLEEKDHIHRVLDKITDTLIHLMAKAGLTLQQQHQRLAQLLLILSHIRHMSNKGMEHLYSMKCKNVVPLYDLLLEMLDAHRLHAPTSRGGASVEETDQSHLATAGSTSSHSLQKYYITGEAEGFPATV

Assay [11] can be described thus: NIH-3T3 fibroblast cytotoxicity, dose response, cytotoxicity control, cell-based, fluorescence, Alamar Blue, secondary assay (AID 2327).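 Also: NIH-3T3 mouse fibroblasts cultured with fluconazole at 8 µg/mL.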 It counts as functional. (The colour change of resazurin is a common sign of viable cells or microbes.)
Assay [12] in a line: C. albicans growth with fluconazole, confirmation, fluorescence, retest (AID 2467). It counts as functional, cell-based.
Assay [13] in a line: inhibitors of intracellular T. cruzi replication, confirmation, NIH3T3 host cells, beta-gal luminescence (AID 2044).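 Also: intracellular parasites grown in NIH/3T3 mouse fibroblasts as host cells; luminescent beta-galactosidase reporter signal from transgenic T. cruzi replicating inside host cells; inhibitors lower the luminescence signal.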 It counts as functional, cell-based.
In assay [14] the target is T3, Heat shock factor protein 1 (Mus musculus, UniProt P38532).
T3 sequence (P38532 whole entry): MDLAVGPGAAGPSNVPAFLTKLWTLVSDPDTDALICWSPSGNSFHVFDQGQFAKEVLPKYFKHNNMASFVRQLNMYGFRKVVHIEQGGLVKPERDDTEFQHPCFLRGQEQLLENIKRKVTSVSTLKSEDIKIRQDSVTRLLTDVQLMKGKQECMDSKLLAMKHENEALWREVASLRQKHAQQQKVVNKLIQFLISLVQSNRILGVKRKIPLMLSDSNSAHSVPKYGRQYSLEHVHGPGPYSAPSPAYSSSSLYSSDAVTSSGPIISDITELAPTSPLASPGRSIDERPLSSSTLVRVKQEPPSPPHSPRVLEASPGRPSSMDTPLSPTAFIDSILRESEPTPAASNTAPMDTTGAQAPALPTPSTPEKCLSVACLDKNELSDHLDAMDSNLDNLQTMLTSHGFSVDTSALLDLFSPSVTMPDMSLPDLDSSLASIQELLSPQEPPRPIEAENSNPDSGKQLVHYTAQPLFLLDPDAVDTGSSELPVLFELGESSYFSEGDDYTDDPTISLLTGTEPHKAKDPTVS
The assay is described as follows: HSF1 potentiators in luciferase reporter cells, confirmation, cell-based, NIH3T3, luminescence, dose retest (AID 435004).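 Also: stress induced by proteasome inhibitor MG132 added 30 min after compound; luciferase reporter driven by HSF1 response element in NIH3T3 cells; actives raise luminescence as potentiators of the MG132 stress response.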 It counts as functional. On the technique in general: In a reporter assay the amount or activity of a reporter protein is the signal.

Another assay addresses Protein Wnt-3a (Mus musculus, UniProt P27467). The assay is described as follows: Wnt3a-driven reporter signaling inhibition, dose response, selectivity assay for Gli-SUFU antagonist project, Wnt-LIGHT cells, luminescence (AID 651570).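 Also: Wnt-LIGHT reporter cells stimulated with conditioned medium from Wnt3a-producing cells.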 The following applies: read-out: IC50_Mean. It counts as functional.
For the next assay, the target named is Large T antigen (Simian virus 40, UniProt P03070). It counts as functional, Betapolyomavirus macacae.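 Also: Confirmatory-stage PubChem screen for compounds that inhibit SV40 T antigen.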
Large T antigen, sequence (P03070 whole entry): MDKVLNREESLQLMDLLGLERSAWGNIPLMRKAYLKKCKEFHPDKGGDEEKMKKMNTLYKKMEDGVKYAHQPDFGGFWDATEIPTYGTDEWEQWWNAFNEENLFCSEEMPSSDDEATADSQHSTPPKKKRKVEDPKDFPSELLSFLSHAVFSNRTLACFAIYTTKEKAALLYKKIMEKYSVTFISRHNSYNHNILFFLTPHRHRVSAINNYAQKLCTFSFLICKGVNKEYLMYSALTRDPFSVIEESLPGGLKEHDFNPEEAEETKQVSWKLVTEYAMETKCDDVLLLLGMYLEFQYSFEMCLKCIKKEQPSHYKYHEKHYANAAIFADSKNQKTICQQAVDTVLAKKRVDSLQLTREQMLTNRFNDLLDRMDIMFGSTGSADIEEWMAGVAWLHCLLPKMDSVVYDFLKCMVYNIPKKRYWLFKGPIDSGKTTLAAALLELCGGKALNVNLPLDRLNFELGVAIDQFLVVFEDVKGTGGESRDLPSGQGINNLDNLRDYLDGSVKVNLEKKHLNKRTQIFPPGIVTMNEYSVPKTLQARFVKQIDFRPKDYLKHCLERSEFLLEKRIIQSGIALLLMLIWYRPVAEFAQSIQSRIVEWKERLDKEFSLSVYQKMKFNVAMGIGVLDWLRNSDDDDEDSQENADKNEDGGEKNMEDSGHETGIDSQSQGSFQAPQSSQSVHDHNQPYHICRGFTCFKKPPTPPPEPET
Assay [15] concerns the target T4, Rac GTPase-activating protein 1 (Homo sapiens, UniProt Q9H0H5).
T4 sequence (Q9H0H5 whole entry): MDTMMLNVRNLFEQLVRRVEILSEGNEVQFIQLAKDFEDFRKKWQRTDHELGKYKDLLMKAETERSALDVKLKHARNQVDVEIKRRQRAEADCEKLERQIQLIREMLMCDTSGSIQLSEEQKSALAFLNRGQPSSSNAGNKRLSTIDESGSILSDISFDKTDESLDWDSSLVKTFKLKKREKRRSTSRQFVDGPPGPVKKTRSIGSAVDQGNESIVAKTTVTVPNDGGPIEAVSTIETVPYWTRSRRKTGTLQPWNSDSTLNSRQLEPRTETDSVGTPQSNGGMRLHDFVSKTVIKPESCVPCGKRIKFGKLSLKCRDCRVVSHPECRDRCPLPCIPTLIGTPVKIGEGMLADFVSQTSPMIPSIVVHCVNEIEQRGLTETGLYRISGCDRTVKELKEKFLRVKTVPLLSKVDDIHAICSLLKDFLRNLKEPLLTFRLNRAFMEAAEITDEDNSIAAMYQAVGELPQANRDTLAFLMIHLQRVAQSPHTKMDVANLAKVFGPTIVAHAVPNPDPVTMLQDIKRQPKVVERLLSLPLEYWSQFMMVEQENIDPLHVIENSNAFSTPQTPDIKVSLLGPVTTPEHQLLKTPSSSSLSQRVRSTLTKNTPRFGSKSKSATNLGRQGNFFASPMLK
The assay is described as follows: MgcRacGAP GTPase-activating activity inhibitors, confirmation, biochemical, ADP Hunter fluorescence, primary and confirmatory (AID 624330). It counts as functional.

Assay [16] in a line: miR-122 activators in hepatoma reporter cells, dose response, cell-based, Huh7 psiCHECK-miR122, Renilla luciferase, cherry-picked (AID 651956).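 Also: huh7 hepatoma cells stably carrying a psiCHECK-2 miR-122 sensor plasmid; renilla luciferase signal reporting endogenous miR-122 activity after 48 h compound exposure.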 It counts as functional.

Photoreceptor-specific nuclear receptor, sequence (Q9Y5X4 whole entry): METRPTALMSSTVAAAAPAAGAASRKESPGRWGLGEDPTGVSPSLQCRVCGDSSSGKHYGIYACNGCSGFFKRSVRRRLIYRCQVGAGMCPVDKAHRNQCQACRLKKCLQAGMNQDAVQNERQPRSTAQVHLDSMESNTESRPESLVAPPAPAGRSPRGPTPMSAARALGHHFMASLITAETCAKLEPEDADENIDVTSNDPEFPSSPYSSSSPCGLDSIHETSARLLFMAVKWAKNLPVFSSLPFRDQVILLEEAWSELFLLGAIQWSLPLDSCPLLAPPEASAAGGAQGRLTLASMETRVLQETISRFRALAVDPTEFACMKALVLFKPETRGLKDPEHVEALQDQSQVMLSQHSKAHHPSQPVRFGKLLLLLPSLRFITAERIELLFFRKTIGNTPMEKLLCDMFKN
Protein Wnt-3a, sequence (P27467 whole entry): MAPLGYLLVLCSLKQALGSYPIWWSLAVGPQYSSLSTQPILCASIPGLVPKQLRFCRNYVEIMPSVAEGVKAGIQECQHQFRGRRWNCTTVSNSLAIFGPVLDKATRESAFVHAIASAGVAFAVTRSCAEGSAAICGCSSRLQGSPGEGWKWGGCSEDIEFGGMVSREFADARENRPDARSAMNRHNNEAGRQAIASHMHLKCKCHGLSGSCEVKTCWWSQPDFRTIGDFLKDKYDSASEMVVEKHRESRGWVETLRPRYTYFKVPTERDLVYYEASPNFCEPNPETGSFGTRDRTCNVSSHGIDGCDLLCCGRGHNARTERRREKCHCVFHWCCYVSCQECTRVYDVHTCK

Turning to `C=CCn1c(C)cc(C(=O)COc2ccc(C)nc2[N+](=O)[O-])c1C`, the EC50 is 6.96 µM (active) in assay [1] and > 20 µM (inactive) in the assay with HEK293 [7]. For the same compound, the IC50 is 4.69 µM (active) in assay [2]; > 20 µM (inactive) with HEK293 [3]; > 20 µM (inactive) in the assay with HEK293 [4]; > 20 µM (inactive) with HEK293 [5]; 5.78 µM (active) in the assay on HEK293 [6].
For the compound `c1ccc(NC2=Nc3cccc4cccc2c34)cc1`, the IC50 in [8] was 17.2 µM (active); in [9], 53.8 µM (inactive).
As for `c1ccc(CN2CCN(C3=Nc4cccc5cccc3c45)CC2)cc1`, the values for the IC50 in assay [8] and in [9] were 7.24 µM (active) and 7.01 µM (active), respectively.
Turning to `COc1ccc(NC2=Nc3cccc4cccc2c34)cc1`, the IC50 in assay [8] is 10 µM (active); in assay [9] it was 45.8 µM (inactive).
On to `Cc1cccc(-n2c(SCc3cc(=O)n4ccsc4n3)nc3ccccc32)c1`, for which the EC50 in [10] is > 60 µM (not active); in “cells” it was 0.209 µM (active); in assay [11] it was 19.9 µM (active); in assay [12] it was 2.05 µM (active); in assay [13], < 0.1 µM (active). The IC50 in assay [8] was 9.71 µM (active); on Estrogen receptor, > 50 µM (not active); in assay [9], 22.3 µM (inactive).
For `COc1cc(S(=O)(=O)Nc2ccc3c(c2)C(=O)N(C)C3=O)ccc1NC(C)=O`, the IC50 in assay [8] was 9.39 µM (active); in assay [9] it was 9.06 µM (active).
For the compound `O=C1N/C(=C\c2ccc(O)cc2)C(O)=C1/C=N/Cc1ccccc1`, in [14], the EC50 was 5.35 µM (active). Further, the IC50 on Protein Wnt-3a is 7.28 µM (active); in assay [2], 3.35 µM (active); at Large T antigen it was 12.1 µM (active); in assay [15], 13 µM (active).
As to `CCCC#Cc1ccc2c(c1)O[C@H](CN(C)C(=O)c1ccncc1)[C@H](C)CN([C@@H](C)CO)S2(=O)=O`, the AC50 in assay [16] was 1.06 µM (active).
Same read-out and setting: the value for `CCC(=O)N1C[C@H]2[C@@H](c3ccccc31)[C@H](CO)N2C(=O)Nc1ccccc1F` was 4.38 µM (active).
On the same count and under the same terms, the value for `Cc1ccccc1-c1ccc2c(c1)O[C@@H](CN(C)C(=O)Nc1ccc(F)cc1)[C@@H](C)CN([C@@H](C)CO)S2(=O)=O` was 18.5 µM (active).
